Results as given in publication PMC11932207, “Regulating AMPA Receptors with Isoxazole-4-Carboxamide Derivatives: An Electrophysiological Study” (Journal of Xenobiotics, 2025).
Where two headings read alike, the source gives them in different places.

Assays:
GluA2 = biological target: T1, GluA2 (Rattus norvegicus, UniProt P19491); experiment: Whole-cell patch clamp recordings of homomeric GluA2 AMPA receptor currents and kinetics in transfected HEK293t cells; format: cell-based; details: for Amplitude (peak whole-cell current in presence of compound): 16 µM compound co-applied with agonist, HEK293t, −60 mV, pH 7.4, 22 °C; for Amplitude (peak whole-cell current in presence of compound) / A/AI (amplitude ratio, glutamate alone / with compound) / t deact (weighted deactivation time constant) / t des (weighted desensitization time constant) / Amplitude, applying glutamate alone after compound: mean ± SD; for Amplitude (peak whole-cell current in presence of compound) / A/AI (amplitude ratio, glutamate alone / with compound) / Amplitude, applying glutamate alone after compound: n = 10; for A/AI (amplitude ratio, glutamate alone / with compound): 16 µM compound; for t deact (weighted deactivation time constant): 10 mM glutamate for 1 ms; for t deact (weighted deactivation time constant) / t des (weighted desensitization time constant): with compound; for t des (weighted desensitization time constant): 10 mM glutamate for 500 ms; for Amplitude, applying glutamate alone after compound: glutamate alone after the compound; for Effect on deactivation kinetics (τdeac), in words / Effect on desensitization kinetics (τdes), in words: versus glutamate alone, one-way ANOVA
T1 construct: expressed in transfected cells; host or cells: HEK293T (HEK293) cells, transient co-transfection with a separate EGFP vector
T1 sequence (P19491 22-883 isoform P19491-2 limits assumed): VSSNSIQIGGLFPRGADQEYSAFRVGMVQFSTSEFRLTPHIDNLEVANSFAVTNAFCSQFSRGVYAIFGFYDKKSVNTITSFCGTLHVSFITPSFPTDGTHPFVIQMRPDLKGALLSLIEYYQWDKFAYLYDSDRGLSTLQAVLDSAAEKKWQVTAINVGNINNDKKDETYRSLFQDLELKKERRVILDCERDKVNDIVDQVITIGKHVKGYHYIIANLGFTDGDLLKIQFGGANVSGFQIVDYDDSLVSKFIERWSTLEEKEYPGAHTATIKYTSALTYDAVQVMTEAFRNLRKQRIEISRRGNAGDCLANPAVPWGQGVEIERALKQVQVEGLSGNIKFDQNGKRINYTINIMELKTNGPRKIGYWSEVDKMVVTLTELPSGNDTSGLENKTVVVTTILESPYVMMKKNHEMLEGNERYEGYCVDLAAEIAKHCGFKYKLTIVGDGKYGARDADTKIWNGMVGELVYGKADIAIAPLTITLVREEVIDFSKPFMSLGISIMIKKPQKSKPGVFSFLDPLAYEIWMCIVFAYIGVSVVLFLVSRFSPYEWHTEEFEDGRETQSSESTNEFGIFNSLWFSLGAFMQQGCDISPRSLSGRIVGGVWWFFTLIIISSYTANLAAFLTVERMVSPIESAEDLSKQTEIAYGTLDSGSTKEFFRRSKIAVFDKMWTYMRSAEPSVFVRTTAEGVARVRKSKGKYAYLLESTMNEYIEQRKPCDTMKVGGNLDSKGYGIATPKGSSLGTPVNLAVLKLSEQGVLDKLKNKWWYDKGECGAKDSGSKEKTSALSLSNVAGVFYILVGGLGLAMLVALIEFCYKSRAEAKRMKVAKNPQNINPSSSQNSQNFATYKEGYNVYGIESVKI
From the text: (§1) The AMPA receptor subunits utilized in this study were of the flip isoform. The flip variant of the GluA2 subunit was originally provided by S. F. Heinemann (Salk Institute, La Jolla, CA, USA) in a pBlueScript plasmid. This plasmid was subsequently sub-cloned into a pRK vector to enable expression in HEK293 cells, which were sourced from Sigma, Germany. Additionally, the unedited version of GluA2 (R607Qjj, flip isoform) and enhanced green fluorescent protein (EGFP), both contained in pRK5 vectors, were generously supplied by P. H. Seeburg (Max Planck Institute for Medical Research, Heidelberg, Germany). Chemical-mediated ways induced transfection. GluA2 homomers were expressed into HEK293 cells by the co-transfection of 1 μg GluA2 plasmid with an equal amount of GFP expression vectors (1:1 ratio) into the cells. In addition, co-transfection was conducted for heteromeric GluA2/3 subunits at a ratio of 1:1.2 for optimum expression. For post-transfection experiments, cells were plated in 10% fetal calf serum and antibiotics in DMEM in Petri plates. These cultures were maintained under carefully controlled conditions—37 °C and 5% CO2 within a humidified incubator. The selection of cells for recordings was based on fluorescence intensity. Highly GFP-positive cells were identified and isolated for further analysis, ensuring precise targeting of transfected populations.
(§2) Whole-cell patch clamp recordings were performed on HEK293t cells 36–48 h after transfection. Experiments were conducted at 22 °C, maintaining a holding potential of −60 mV, using an Integrated Patch Amplifier (IPA) from Sutter Instruments (Novato, CA, USA). Data acquisition was managed with SutterPatch Software v. 1.1.1 (Sutter Instruments), employing a sampling rate of 10 kHz and setting the low-pass filter at 2 kHz. […] The external solution contained 150 mM NaCl, 2.8 mM KCl, 0.5 mM MgCl2, 2 mM CaCl2, and 10 mM HEPES, adjusted to a pH of 7.4 using NaOH. The internal pipette solution was composed of 110 mM CsF, 30 mM CsCl, 4 mM NaCl, 0.5 mM CaCl2, 10 mM trypsin-EDTA solution B (0.25%), 0.05% EDTA, and 10 mM HEPES, with the pH adjusted to 7.2 using CsOH.
(§3) A dual-barrel glass pipette (theta tube) was employed for the rapid delivery of glutamate and other solutions. The theta tube was attached to a high-speed piezoelectric solution exchange system (Automate Scientific, Berkeley, CA, USA). To assess the efficiency of solution exchange, open-tip potentials were measured by applying solutions with different ionic compositions after the patch was expelled from the pipette. The time required for a 10–90% change in the solution was generally less than […].
(§4) Data analysis was performed with Igor Pro8.04 software (Wave Metrics, Inc., Portland, OR, USA). AMPA receptor deactivation and desensitization kinetics were measured by applying 10 mM glutamate for 1 ms and 500 ms, respectively. The currents from the AMPA receptor were fitted to a double-exponential model to quantify deactivation and desensitization time constants measured from the double-exponential fits. The weighted tau (τw) is calculated as: τw = (τf × af) + (τs × as), where τf and τs are the time constants of fast and slow exponential components and af and as represent their relative amplitudes.
(§5) Data are presented as the mean ± standard deviation (SD). The total number of HEK293 cells engaged was n = 10. The experimental groups were compared to the wild type using a one-way analysis of variance (ANOVA). Statistical significance was assessed using p values: p < 0.05 (*) indicated significance, p < 0.01 (**) indicated high significance, and p < 0.001 (***) indicated very high significance. The value “ns” indicates non-significance. Concentration–response relationships were modeled using the Hill equation with the resulting combined plots via GraphPad Prism software (version 6.01, GraphPad Software). The data presented are the means from 3–4 experimental replicates. […]

GluA2/3 = biological target: T2, GluA2/3 (UniProt P19491+P42263); experiment: Whole-cell patch clamp recordings of heteromeric GluA2/3 AMPA receptor currents and kinetics in transfected HEK293t cells; format: cell-based; details: for Amplitude (peak whole-cell current in presence of compound): 16 µM compound co-applied with agonist, HEK293t, −60 mV, pH 7.4, 22 °C; for Amplitude (peak whole-cell current in presence of compound) / A/AI (amplitude ratio, glutamate alone / with compound) / t deact (weighted deactivation time constant) / t des (weighted desensitization time constant) / Amplitude, applying glutamate alone after compound: mean ± SD; for Amplitude (peak whole-cell current in presence of compound) / A/AI (amplitude ratio, glutamate alone / with compound) / Amplitude, applying glutamate alone after compound: n = 10; for A/AI (amplitude ratio, glutamate alone / with compound): 16 µM compound; for t deact (weighted deactivation time constant): 10 mM glutamate for 1 ms; for t deact (weighted deactivation time constant) / t des (weighted desensitization time constant): with compound; for t des (weighted desensitization time constant): 10 mM glutamate for 500 ms; for Amplitude, applying glutamate alone after compound: glutamate alone after the compound; for Effect on deactivation kinetics (τdeac), in words / Effect on desensitization kinetics (τdes), in words: versus glutamate alone, one-way ANOVA
T2 construct: expressed in transfected cells; host or cells: HEK293T (HEK293) cells, transient co-transfection
T2 sequence (P19491 22-883 isoform P19491-2 limits assumed): as above
T2 sequence (P42263 29-894 isoform P42263-2 limits assumed): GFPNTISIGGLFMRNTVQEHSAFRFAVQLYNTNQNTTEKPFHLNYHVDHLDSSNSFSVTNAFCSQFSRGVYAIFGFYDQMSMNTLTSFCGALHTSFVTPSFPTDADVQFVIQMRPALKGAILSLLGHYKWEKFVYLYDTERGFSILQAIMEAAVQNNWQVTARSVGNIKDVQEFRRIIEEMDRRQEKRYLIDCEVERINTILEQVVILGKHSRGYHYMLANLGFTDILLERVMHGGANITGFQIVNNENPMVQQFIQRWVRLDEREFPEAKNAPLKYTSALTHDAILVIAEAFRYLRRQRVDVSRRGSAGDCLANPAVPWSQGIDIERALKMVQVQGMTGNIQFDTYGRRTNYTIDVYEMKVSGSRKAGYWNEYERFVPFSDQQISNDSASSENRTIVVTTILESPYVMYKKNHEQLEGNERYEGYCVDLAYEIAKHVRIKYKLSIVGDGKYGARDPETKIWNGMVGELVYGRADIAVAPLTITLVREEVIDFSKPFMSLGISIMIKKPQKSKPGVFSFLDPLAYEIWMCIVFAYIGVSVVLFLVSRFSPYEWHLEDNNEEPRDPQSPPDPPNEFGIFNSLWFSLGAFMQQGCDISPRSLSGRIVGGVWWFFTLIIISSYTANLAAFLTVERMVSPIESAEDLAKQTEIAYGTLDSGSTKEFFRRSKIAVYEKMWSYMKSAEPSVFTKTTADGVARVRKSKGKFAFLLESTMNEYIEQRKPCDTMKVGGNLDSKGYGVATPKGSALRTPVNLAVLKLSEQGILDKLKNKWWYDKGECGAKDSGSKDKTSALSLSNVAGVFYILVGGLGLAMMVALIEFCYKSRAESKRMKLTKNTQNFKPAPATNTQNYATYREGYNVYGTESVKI
From the text: as §1, §2, §3, §4, §5

[1] = concentration–response fit, read-out: Log IC50 (converted)
[2] = inhibition of whole-cell peak current, concentration–response, Hill fit, read-out: IC50

Row | SMILES | Amplitude (peak whole-cell current in presence of compound) (GluA2) [pA] | A/AI (amplitude ratio, glutamate alone / with compound) (GluA2) | t deact (weighted deactivation time constant) (GluA2) [ms] | t des (weighted desensitization time constant) (GluA2) [ms] | IC50 (GluA2; [1]) [µM] | Amplitude, applying glutamate alone after compound (GluA2) [pA] | IC50 (GluA2; [2]) [µM] | Effect on deactivation kinetics (τdeac), in words (GluA2) | Effect on desensitization kinetics (τdes), in words (GluA2) | Amplitude (peak whole-cell current in presence of compound) (GluA2/3) [pA] | A/AI (amplitude ratio, glutamate alone / with compound) (GluA2/3) | t deact (weighted deactivation time constant) (GluA2/3) [ms] | t des (weighted desensitization time constant) (GluA2/3) [ms] | IC50 (GluA2/3; [1]) [µM] | Amplitude, applying glutamate alone after compound (GluA2/3) [pA] | IC50 (GluA2/3; [2]) [µM] | Effect on deactivation kinetics (τdeac), in words (GluA2/3) | Effect on desensitization kinetics (τdes), in words (GluA2/3)
1 | COc1cc(NC(=O)c2c(-c3c(Cl)cccc3Cl)noc2C)cc(OC)c1 [CIC-3, 3-(2,6-dichlorophenyl)-N-(3,5-dimethoxyphenyl)-5-methylisoxazole-4-carboxamide] | 223±15 | 5.60±0.27 | 6.3 ± 0.3 | 0.9 ± 0.1 | 4.79 | 1216±119 | 4.82 | statistically significant prolongation of τdeac | significantly accelerated desensitization | 101±10 | 5.50±0.26 | 6.2 ± 0.3 | 0.9 ± 0.1 | 4.9 | 542±66 | 4.92 | statistically significant prolongation of τdeac | significantly accelerated desensitization
2 | COc1cc(NC(=O)c2c(-c3c(Cl)cccc3Cl)noc2C)cc(OC)c1OC [CIC-4, 3-(2,6-dichlorophenyl)-5-methyl-N-(3,4,5-trimethoxyphenyl)isoxazole-4-carboxamide] | 250±22 | 5.0±0.23 | 5.6 ± 0.3 | 1.1 ± 0.1 | 5.25 | 1220±157 | 5.26 | statistically significant prolongation of τdeac | accelerated desensitization, although to a lesser degree | 110±16 | 4.97±0.23 | 5.7 ± 0.3 | 1.1 ± 0.1 | 5.37 | 531±89 | 5.4 | statistically significant prolongation of τdeac | accelerated desensitization, although to a lesser degree
3 | COc1ccc(NC(=O)c2c(-c3c(Cl)cccc3Cl)noc2C)c(OC)c1 [CIC-5, 3-(2,6-dichlorophenyl)-N-(2,4-dimethoxyphenyl)-5-methylisoxazole-4-carboxamide] | 228±15 | 5.42±0.07 | 6.1 ± 0.3 | 1.0 ± 0.1 | 5.01 | 1198±99 | 5.03 | statistically significant prolongation of τdeac | accelerated desensitization, although to a lesser degree | 105±7 | 5.37±016 | 6.2 ± 0.3 | 1.0 ± 0.1 | 5.13 | 548±40 | 5.14 | statistically significant prolongation of τdeac | accelerated desensitization, although to a lesser degree
4 | COc1ccc(NC(=O)c2c(-c3c(Cl)cccc3Cl)noc2C)cc1OC [CIC-6, 3-(2,6-dichlorophenyl)-N-(3,4-dimethoxyphenyl)-5-methylisoxazole-4-carboxamide] | 256±19 | 4.84±0.23 | 5.4 ± 0.2 | 1.5 ± 0.1 | 5.75 | 1202±120 | 5.74 | statistically significant prolongation of τdeac | accelerated desensitization, although to a lesser degree | 116±10 | 4.76±0.14 | 5.3 ± 0.3 | 1.6 ± 0.1 | 5.75 | 534±56 | 5.76 | statistically significant prolongation of τdeac | accelerated desensitization, although to a lesser degree
5 | COc1ccccc1Oc1ccc(NC(=O)c2c(-c3c(Cl)cccc3Cl)noc2C)cc1 [CIC-7, 3-(2,6-dichlorophenyl)-N-(4-(2-methoxyphenoxy)phenyl)-5-methylisoxazole-4-carboxamide] | 280±13 | 4.53±0.21 | 5.1 ± 0.2 | 1.7 ± 0.1 | 6.03 | 1231±106 | 6.03 | statistically significant prolongation of τdeac | accelerated desensitization, although to a lesser degree | 120±15 | 4.49±0.21 | 5.2 ± 0.2 | 1.8 ± 0.1 | 6.17 | 524±76 | 6.14 | statistically significant prolongation of τdeac | accelerated desensitization, although to a lesser degree
